# Experimental data taken from ChEMBL document CHEMBL1649134, “Occurrence of efflux mechanism and cephalosporinase variant in a population of Enterobacter aerogenes and Klebsiella pneumoniae isolates producing extended-spectrum beta-lactamases” (2009).
# Key:
# [1] = test system: Klebsiella aerogenes; assay: Antimicrobial activity against multidrug resistant Enterobacter aerogenes isolate 1 by broth dilution method; type: functional
# [2] = test system: Klebsiella aerogenes; assay: Antimicrobial activity against multidrug resistant Enterobacter aerogenes isolate 2 by broth dilution method; type: functional
# [3] = test system: Klebsiella aerogenes; assay: Antimicrobial activity against multidrug resistant Enterobacter aerogenes isolate 3 by broth dilution method; type: functional
# [4] = test system: Klebsiella aerogenes; assay: Antimicrobial activity against multidrug resistant Enterobacter aerogenes isolate 4 by broth dilution method; type: functional
# [5] = test system: Klebsiella aerogenes; assay: Antimicrobial activity against multidrug resistant Enterobacter aerogenes isolate 5 by broth dilution method; type: functional
# [6] = test system: Klebsiella aerogenes; assay: Antimicrobial activity against multidrug resistant Enterobacter aerogenes isolate 6 by broth dilution method; type: functional
# [7] = test system: Klebsiella aerogenes; assay: Antimicrobial activity against multidrug resistant Enterobacter aerogenes isolate 7 by broth dilution method; type: functional
# [8] = test system: Klebsiella aerogenes; assay: Antimicrobial activity against multidrug resistant Enterobacter aerogenes isolate 8 by broth dilution method; type: functional
# [9] = test system: Klebsiella aerogenes; assay: Antimicrobial activity against multidrug resistant Enterobacter aerogenes isolate 9 by broth dilution method; type: functional
# [10] = test system: Klebsiella aerogenes; assay: Antimicrobial activity against multidrug resistant Enterobacter aerogenes isolate 10 by broth dilution method; type: functional
# [11] = test system: Klebsiella aerogenes; assay: Antimicrobial activity against multidrug resistant Enterobacter aerogenes isolate 11 by broth dilution method; type: functional
# [12] = test system: Klebsiella aerogenes; assay: Antimicrobial activity against multidrug resistant Enterobacter aerogenes isolate 12 by broth dilution method; type: functional
# [13] = test system: Klebsiella aerogenes; assay: Antimicrobial activity against multidrug resistant Enterobacter aerogenes isolate 13 by broth dilution method; type: functional
# [14] = test system: Klebsiella aerogenes; assay: Antimicrobial activity against multidrug resistant Enterobacter aerogenes isolate 14 by broth dilution method; type: functional
# [15] = test system: Klebsiella aerogenes; assay: Antimicrobial activity against multidrug resistant Enterobacter aerogenes isolate 15 by broth dilution method; type: functional
# [16] = test system: Klebsiella aerogenes; assay: Antimicrobial activity against multidrug resistant Enterobacter aerogenes isolate 16 by broth dilution method; type: functional
# [17] = test system: Klebsiella aerogenes; assay: Antimicrobial activity against multidrug resistant Enterobacter aerogenes isolate 17 by broth dilution method; type: functional
# [18] = test system: Klebsiella aerogenes; assay: Antimicrobial activity against multidrug resistant Enterobacter aerogenes isolate 18 by broth dilution method; type: functional
# [19] = test system: Klebsiella aerogenes; assay: Antimicrobial activity against multidrug resistant Enterobacter aerogenes isolate 19 by broth dilution method; type: functional
# [20] = test system: Klebsiella aerogenes; assay: Antimicrobial activity against multidrug resistant Enterobacter aerogenes isolate 20 by broth dilution method; type: functional
# [21] = test system: Klebsiella aerogenes; assay: Antimicrobial activity against multidrug resistant Enterobacter aerogenes isolate 21 by broth dilution method; type: functional
# [22] = test system: Klebsiella aerogenes; assay: Antimicrobial activity against multidrug resistant Enterobacter aerogenes isolate 22 by broth dilution method; type: functional
# [23] = test system: Klebsiella aerogenes; assay: Antimicrobial activity against multidrug resistant Enterobacter aerogenes isolate 23 by broth dilution method; type: functional
# [24] = test system: Klebsiella aerogenes; assay: Antimicrobial activity against multidrug resistant Enterobacter aerogenes isolate 24 by broth dilution method; type: functional
# [25] = test system: Klebsiella aerogenes; assay: Antimicrobial activity against multidrug resistant Enterobacter aerogenes isolate 25 by broth dilution method; type: functional
# [26] = test system: Klebsiella aerogenes; assay: Antimicrobial activity against multidrug resistant Enterobacter aerogenes isolate 26 by broth dilution method; type: functional
# [27] = test system: Klebsiella aerogenes; assay: Antimicrobial activity against multidrug resistant Enterobacter aerogenes isolate 27 by broth dilution method; type: functional
# [28] = test system: Klebsiella pneumoniae; assay: Antimicrobial activity against multidrug resistant Klebsiella pneumoniae ATCC 11296 by broth dilution method; type: functional
# [29] = test system: Klebsiella pneumoniae; assay: Antimicrobial activity against multidrug resistant Klebsiella pneumoniae isolate 1 by broth dilution method; type: functional
# [30] = test system: Klebsiella pneumoniae; assay: Antimicrobial activity against multidrug resistant Klebsiella pneumoniae isolate 2 by broth dilution method; type: functional
# [31] = test system: Klebsiella pneumoniae; assay: Antimicrobial activity against multidrug resistant Klebsiella pneumoniae isolate 3 by broth dilution method; type: functional
# [32] = test system: Klebsiella pneumoniae; assay: Antimicrobial activity against multidrug resistant Klebsiella pneumoniae isolate 4 by broth dilution method; type: functional
# [33] = test system: Klebsiella pneumoniae; assay: Antimicrobial activity against multidrug resistant Klebsiella pneumoniae isolate 5 by broth dilution method; type: functional
# [34] = test system: Klebsiella pneumoniae; assay: Antimicrobial activity against multidrug resistant Klebsiella pneumoniae isolate 6 by broth dilution method; type: functional
# [35] = test system: Klebsiella pneumoniae; assay: Antimicrobial activity against multidrug resistant Klebsiella pneumoniae isolate 7 by broth dilution method; type: functional
# [36] = test system: Klebsiella pneumoniae; assay: Antimicrobial activity against multidrug resistant Klebsiella pneumoniae isolate 8 by broth dilution method; type: functional
# [37] = test system: Klebsiella pneumoniae; assay: Antimicrobial activity against multidrug resistant Klebsiella pneumoniae isolate 9 by broth dilution method; type: functional
# [38] = test system: Klebsiella pneumoniae; assay: Antimicrobial activity against multidrug resistant Klebsiella pneumoniae isolate 10 by broth dilution method; type: functional
# [39] = test system: Klebsiella pneumoniae; assay: Antimicrobial activity against multidrug resistant Klebsiella pneumoniae isolate 11 by broth dilution method; type: functional
# [40] = test system: Klebsiella pneumoniae; assay: Antimicrobial activity against multidrug resistant Klebsiella pneumoniae isolate 12 by broth dilution method; type: functional
# [41] = test system: Klebsiella pneumoniae; assay: Antimicrobial activity against multidrug resistant Klebsiella pneumoniae isolate 13 by broth dilution method; type: functional
# [42] = test system: Klebsiella pneumoniae; assay: Antimicrobial activity against multidrug resistant Klebsiella pneumoniae isolate 15 by broth dilution method; type: functional
# [43] = test system: Klebsiella pneumoniae; assay: Antimicrobial activity against multidrug resistant Klebsiella pneumoniae isolate 16 by broth dilution method; type: functional
# [44] = test system: Klebsiella aerogenes; assay: Antimicrobial activity against multidrug resistant Enterobacter aerogenes ATCC 15038 by broth dilution method; type: functional
# [45] = test system: Klebsiella aerogenes; assay: Antimicrobial activity against multidrug resistant Enterobacter aerogenes ATCC 15038 harboring pDrive plasmid by broth dilution method; type: functional
# [46] = test system: Klebsiella aerogenes; assay: Antimicrobial activity against multidrug resistant Enterobacter aerogenes ATCC 15038 harboring pACM204 plasmid by broth dilution method; type: functional
# [47] = test system: Klebsiella aerogenes; assay: Antimicrobial activity against multidrug resistant Enterobacter aerogenes ATCC 15038 harboring pDrive plasmid expressing ampC gene by broth dilution method; type: functional
# [48] = test system: Escherichia coli; assay: Antimicrobial activity against multidrug resistant Escherichia coli ATCC 35218 by broth dilution method; type: functional
# [49] = test system: Escherichia coli; assay: microbe, parasite or virus in culture; settings: DH5[alpha]
# Description: Antimicrobial activity against multidrug resistant Escherichia coli DH5[alpha] by broth dilution method
# [50] = test system: Escherichia coli; assay: microbe, parasite or virus in culture; settings: DH5[alpha]; remark: listed apart in the source
# Description: Antimicrobial activity against multidrug resistant Escherichia coli DH5[alpha] harboring pDrive plasmid by broth dilution method
# [51] = test system: Escherichia coli; assay: microbe, parasite or virus in culture; settings: DH5[alpha]; remark: listed apart in the source
# Description: Antimicrobial activity against multidrug resistant Escherichia coli DH5[alpha] harboring pDrive plasmid expressing ampC gene by broth dilution method
# [52] = test system: Escherichia coli; assay: microbe, parasite or virus in culture; settings: DH5[alpha]; remark: listed apart in the source
# Description: Antimicrobial activity against multidrug resistant Escherichia coli DH5[alpha] harboring pACM204 plasmid by broth dilution method
# [53] = test system: Escherichia coli; assay: microbe, parasite or virus in culture; settings: ATCC 35218
# Description: Antimicrobial activity against multidrug resistant Escherichia coli ATCC 35218 harboring pDrive plasmid by broth dilution method
# [54] = test system: Escherichia coli; assay: microbe, parasite or virus in culture; settings: ATCC 35218; remark: listed apart in the source
# Description: Antimicrobial activity against multidrug resistant Escherichia coli ATCC 35218 harboring pDrive plasmid expressing ampC gene by broth dilution method
smiles,measurement,setting,value
CO/N=C(\C(=O)N[C@@H]1C(=O)N2C(C(=O)[O-])=C(C[N+]3(C)CCCC3)CS[C@H]12)c1csc(N)n1,MIC,[1],32 µg/mL
same,MIC,[2],32 µg/mL
same,MIC,[3],16 µg/mL
same,MIC,[4],32 µg/mL
same,MIC,[5],64 µg/mL
same,MIC,[6],4 µg/mL
same,MIC,[7],64 µg/mL
same,MIC,[8],64 µg/mL
same,MIC,[9],32 µg/mL
same,MIC,[10],16 µg/mL
same,MIC,[11],64 µg/mL
same,MIC,[12],128 µg/mL
same,MIC,[13],64 µg/mL
same,MIC,[14],64 µg/mL
same,MIC,[15],16 µg/mL
same,MIC,[16],64 µg/mL
same,MIC,[17],64 µg/mL
same,MIC,[18],32 µg/mL
same,MIC,[19],64 µg/mL
same,MIC,[20],64 µg/mL
same,MIC,[21],128 µg/mL
same,MIC,[22],64 µg/mL
same,MIC,[23],64 µg/mL
same,MIC,[24],128 µg/mL
same,MIC,[25],64 µg/mL
same,MIC,[26],2 µg/mL
same,MIC,[27],128 µg/mL
same,MIC,[28],0.125 µg/mL
same,MIC,[29],64 µg/mL
same,MIC,[30],64 µg/mL
same,MIC,[31],64 µg/mL
same,MIC,[32],64 µg/mL
same,MIC,[33],64 µg/mL
same,MIC,[34],16 µg/mL
same,MIC,[35],64 µg/mL
same,MIC,[36],64 µg/mL
same,MIC,[37],64 µg/mL
same,MIC,[38],64 µg/mL
same,MIC,[39],64 µg/mL
same,MIC,[40],16 µg/mL
same,MIC,[41],2 µg/mL
same,MIC,[42],32 µg/mL
same,MIC,[43],64 µg/mL
same,MIC,[44],0.03 µg/mL
same,MIC,[45],0.25 µg/mL
same,MIC,[46],0.25 µg/mL
same,MIC,[47],32 µg/mL
same,MIC,[48],0.03 µg/mL
same,MIC,[49],0.125 µg/mL
same,MIC,[50],0.5 µg/mL
same,MIC,[51],32 µg/mL
same,MIC,[52],0.25 µg/mL
same,MIC,[53],0.5 µg/mL
same,MIC,[54],32 µg/mL
